According to patent US20160002204A1 (Board of Regents, The University of Texas System, priority 2014, published 2016):

Legend:
[1] = target: T1, GLS1 (purified recombinant human GAC) (Homo sapiens, UniProt O94925); experiment: GLS1 enzymatic activity assay (dual-coupled, Amplex UltraRed/resorufin); format: biochemical
T1 sequence (O94925 55-598 isoform O94925-3 limits assumed): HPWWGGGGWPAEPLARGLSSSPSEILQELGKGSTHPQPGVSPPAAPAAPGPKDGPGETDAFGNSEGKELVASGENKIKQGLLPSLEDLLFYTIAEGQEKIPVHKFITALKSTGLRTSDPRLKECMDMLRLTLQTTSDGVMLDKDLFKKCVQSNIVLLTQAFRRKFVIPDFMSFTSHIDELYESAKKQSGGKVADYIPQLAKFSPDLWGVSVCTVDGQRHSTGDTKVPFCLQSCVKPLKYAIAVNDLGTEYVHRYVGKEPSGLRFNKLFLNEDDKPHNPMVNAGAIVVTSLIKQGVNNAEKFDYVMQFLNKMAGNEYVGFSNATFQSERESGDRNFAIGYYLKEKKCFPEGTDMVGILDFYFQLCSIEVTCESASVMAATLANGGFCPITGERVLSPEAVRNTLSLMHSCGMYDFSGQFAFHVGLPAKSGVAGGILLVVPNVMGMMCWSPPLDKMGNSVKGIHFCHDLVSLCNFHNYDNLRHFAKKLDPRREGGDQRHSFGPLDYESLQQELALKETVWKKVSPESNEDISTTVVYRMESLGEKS
Procedure, shortened: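 GAC activity measured by coupling glutamate to glutamate oxidase and HRP, generating resorufin from Amplex UltraRed. Enzyme (2 nM) preincubated with 50 mM potassium phosphate 10 min at room temperature, then inhibitor 10 min; 1 mM glutamine substrate, 1% DMSO. Fluorescence 530/590 nm, kinetic or 20-min endpoint; IC50 from four-parameter logistic fit.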

A549 cells = experiment: A549 proliferation (viability) assay, Cell Titer Fluor, 72 hours; format: cell-based; conditions: Homo sapiens
Procedure, shortened: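 Compound was added to A549 cells (1000/well, pre-grown 24 h in RPMI 1640 plus 10% dialyzed FBS) at 0.5% DMSO and left 72 h under 37 °C, 5% CO2, ambient O2. Live-cell fluorescence (Cell Titer Fluor) gave the EC50.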

Molecule `O=C(Cc1ccccc1F)Nc1ccn(CCC(F)Cn2cc(C(=O)NCc3ccc(C(F)(F)F)nc3)nn2)c(=O)c1F` (stereo not drawn) [Example 371, 1-(2-fluoro-4-{3-fluoro-4-[2-(2-fluorophenyl)acetamido]-2-oxo-1,2-dihydropyridin-1-yl}butyl)-N-{[6-(trifluoromethyl)pyridin-3-yl]methyl}-1H-1,2,3-triazole-4-carboxamide] has an IC50 [1] of under 100 nM and an EC50 (A549 cells) of 100 to 500 nM.
For `Nc1ccn(CCC(F)Cn2cc(C(=O)NCc3cccc(OC(F)(F)F)c3)nn2)c(=O)n1` (stereo not drawn) [Example 382, 1-[4-(4-amino-2-oxo-1,2-dihydropyrimidin-1-yl)-2-fluorobutyl]-N-{[3-(trifluoromethoxy)phenyl]methyl}-1H-1,2,3-triazole-4-carboxamide], the IC50 [1] was 500 to 5000 nM and the EC50 (A549 cells) was over 5000 nM.
Work on `O=C(CN1CC2CC(C2)C1)Nc1ccn(CCC(F)Cn2cc(C(=O)NCc3cc(C(F)(F)F)ccn3)nn2)c(=O)c1F` (stereo not drawn) [Example 415, 1-{4-[4-(2-{3-azabicyclo[3.1.1]heptan-3-yl}acetamido)-3-fluoro-2-oxo-1,2-dihydropyridin-1-yl]-2-fluorobutyl}-N-{[4-(trifluoromethyl)pyridin-2-yl]methyl}-1H-1,2,3-triazole-4-carboxamide] yielded an IC50 [1] of under 100 nM and an EC50 (A549 cells) of under 100 nM.
`O=C(Cc1ccccc1)Nc1ccn(CCCCc2nnc(C(=O)NCc3cc(OC(F)(F)F)ccc3F)s2)c(=O)c1` [Example 458, N-{[2-fluoro-5-(trifluoromethoxy)phenyl]methyl}-5-{4-[2-oxo-4-(2-phenylacetamido)-1,2-dihydropyridin-1-yl]butyl}-1,3,4-thiadiazole-2-carboxamide] was tested, and the IC50 [1] was under 100 nM and the EC50 (A549 cells) was under 100 nM.
`COCCNC(=O)c1nnc(CCCCn2ccc(NC(=O)OCc3ccccc3)nc2=O)s1` [Example 121, benzyl N-[1-(4-{5-[(2-methoxyethyl)carbamoyl]-1,3,4-thiadiazol-2-yl}butyl)-2-oxo-1,2-dihydropyrimidin-4-yl]carbamate] gave an IC50 [1] of 500 to 5000 nM and an EC50 (A549 cells) of over 5000 nM.
`C[C@H]1CCN(C(=O)C(=O)Nc2ccn(CCC(F)Cn3cc(C(=O)NCc4cc(OC(F)(F)F)ccc4F)nn3)c(=O)c2F)C1` (stereo partly drawn) [Example 432, 1-[2-fluoro-4-(3-fluoro-4-{2-[(3S)-3-methylpyrrolidin-1-yl]-2-oxoacetamido}-2-oxo-1,2-dihydropyridin-1-yl)butyl]-N-{[2-fluoro-5-(trifluoromethoxy)phenyl]methyl}-1H-1,2,3-triazole-4-carboxamide] gave an IC50 [1] of under 100 nM and an EC50 (A549 cells) of under 100 nM.
`O=C(NCc1cccnc1)c1ccn(CCCCn2cc(C(=O)NCc3cccc(OC(F)(F)F)c3)nn2)c(=O)c1` [Example 60, 2-oxo-N-(pyridin-3-ylmethyl)-1-{4-[4-({[3-(trifluoro-methoxy)phenyl]methyl}carbamoyl)-1H-1,2,3-triazol-1-yl]butyl}-1,2-dihydropyridine-4-carboxamide] showed an IC50 [1] of 100 to 500 nM and an EC50 (A549 cells) of over 5000 nM.
`CC(C)(C)OC(=O)N1CCC(CC(=O)Nc2ccn(CCCCn3cc(C(=O)NCc4cccc(OC(F)(F)F)c4)nn3)c(=O)c2)CC1` [Example 205, tert-butyl 4-{[(2-oxo-1-{4-[4-({[3-(trifluoromethoxy)phenyl]methyl}carbamoyl)-1H-1,2,3-triazol-1-yl]butyl}-1,2-dihydropyridin-4-yl)carbamoyl]methyl}piperidine-1-carboxylate] showed an IC50 [1] of under 100 nM and an EC50 (A549 cells) of under 100 nM.
In the case of `CS(=O)(=O)CCC(=O)Nc1ccn(CCCCc2ccc(NC(=O)Cc3cccc(OC(F)(F)F)c3)nn2)c(=O)n1` [Example 110, 3-methanesulfonyl-N-{2-oxo-1-[4-(6-{2-[3-(trifluoro-methoxy)phenyl]acetamido}pyridazin-3-yl)butyl]-1,2-dihydropyrimidin-4-yl}propanamide], the IC50 [1] is reported as under 100 nM and the EC50 (A549 cells) is reported as 100 to 500 nM.
With `O=C(CN1CCCC1=O)Nc1ccn(CCCCn2cc(C(=O)NCc3cccc(C(F)(F)F)c3)nn2)c(=O)c1` [Example 155, 1-(4-{2-oxo-4-[2-(2-oxopyrrolidin-1-yl)acetamido]-1,2-dihydropyridin-1-yl}butyl)-N-{[3-(trifluoromethyl)phenyl]methyl}-1H-1,2,3-triazole-4-carboxamide] the IC50 [1] was 100 to 500 nM and the EC50 (A549 cells) was over 5000 nM.
Molecule `O=C(CC1CCCC1)Nc1ccn(CCC(F)Cn2cc(C(=O)NCc3cc(C(F)(F)F)ccn3)nn2)c(=O)c1F` (stereo not drawn) [Example 329, 1-{4-[4-(2-cyclopentylacetamido)-3-fluoro-2-oxo-1,2-dihydropyridin-1-yl]-2-fluorobutyl}-N-{[4-(trifluoromethyl)pyridin-2-yl]methyl}-1H-1,2,3-triazole-4-carboxamide] has an IC50 [1] of under 100 nM and an EC50 (A549 cells) of under 100 nM.
Molecule `CC(C)CC(=O)Nc1ccn(CCCCc2ccc(NC(=O)Cc3cccc(OC(F)(F)F)c3)nn2)c(=O)n1` [Example 111, 3-methyl-N-{2-oxo-1-[4-(6-{2-[3-(trifluoromethoxy)phenyl]acetamido}pyridazin-3-yl)butyl]-1,2-dihydropyrimidin-4-yl}butanamide] has an IC50 [1] of under 100 nM and an EC50 (A549 cells) of under 100 nM.
`O=C(Nc1ccn(CCCCn2cc(C(=O)NCc3cccc(OC(F)(F)F)c3)nn2)c(=O)c1)OC1CCCCC1` [Example 44, cyclohexyl N-(2-oxo-1-{4-[4-({[3-(trifluoromethoxy)phenyl]methyl}carbamoyl)-1H-1,2,3-triazol-1-yl]butyl}-1,2-dihydropyridin-4-yl)carbamate] was tested, and the IC50 [1] was under 100 nM and the EC50 (A549 cells) was under 100 nM.
With `O=C(CN1CCN(C(=O)CC(F)(F)F)CC1)Nc1ccn(CCC(F)Cn2cc(C(=O)NCc3cccc(OC(F)(F)F)c3)nn2)c(=O)c1F` (stereo not drawn) [Example 308, 1-[2-fluoro-4-(3-fluoro-2-oxo-4-{2-[4-(3,3,3-trifluoropropanoyl)piperazin-1-yl]acetamido}-1,2-dihydropyridin-1-yl)butyl]-N-{[3-(trifluoromethoxy)phenyl]methyl}-1H-1,2,3-triazole-4-carboxamide] the IC50 [1] was under 100 nM and the EC50 (A549 cells) was 100 to 500 nM.
`CC(C)(C)OC(=O)N1CCCC(CC(=O)Nc2ccn(CCC(F)Cn3cc(C(=O)NCc4cccc(OC(F)(F)F)c4)nn3)c(=O)c2)C1` (stereo not drawn) [Example 245, tert-butyl 3-{[(1-{3-fluoro-4-[4-({[3-(trifluoromethoxy)phenyl]methyl}carbamoyl)-1H-1,2,3-triazol-1-yl]butyl}-2-oxo-1,2-dihydropyridin-4-yl)carbamoyl]methyl}piperidine-1-carboxylate] showed an IC50 [1] of under 100 nM and an EC50 (A549 cells) of under 100 nM.
Work on `CC(C)CNC(=O)c1ccn(CCCCn2cc(C(=O)NCc3cccc(OC(F)(F)F)c3)nn2)c(=O)c1` [Example 62, N-(2-methylpropyl)-2-oxo-1-{4-[4-({[3-(trifluoromethoxy)phenyl]methyl}carbamoyl)-1H-1,2,3-triazol-1-yl]butyl}-1,2-dihydropyridine-4-carboxamide] yielded an IC50 [1] of 100 to 500 nM and an EC50 (A549 cells) of 500 to 5000 nM.
With `O=C(NCc1cc(C(F)(F)F)ccn1)c1cn(CC(F)CCn2ccc(COc3c(F)cccc3F)cc2=O)nn1` (stereo not drawn) [Example 485, 1-{4-[4-(2,6-difluorophenoxymethyl)-2-oxo-1,2-dihydropyridin-1-yl]-2-fluorobutyl}-N-{[4-(trifluoromethyl)pyridin-2-yl]methyl}-1H-1,2,3-triazole-4-carboxamide] the IC50 [1] was 100 to 500 nM and the EC50 (A549 cells) was 100 to 500 nM.
`O=C(CN1CCCC(F)C1)Nc1ccn(CC(F)CCn2cc(C(=O)NCc3cccc(OC(F)(F)F)c3)nn2)c(=O)c1` (stereo not drawn) [Example 283, 1-(3-fluoro-4-{4-[2-(3-fluoropiperidin-1-yl)acetamido]-2-oxo-1,2-dihydropyridin-1-yl}butyl)-N-{[3-(trifluoromethoxy)phenyl]methyl}-1H-1,2,3-triazole-4-carboxamide] gave an IC50 [1] of under 100 nM and an EC50 (A549 cells) of under 100 nM.
Molecule `N#Cc1cccc(CC(=O)Nc2ccn(CCC(F)Cn3cc(C(=O)NCc4cccc(OC(F)(F)F)c4)nn3)c(=O)c2)c1` (stereo not drawn) [Example 235, 1-(4-{4-[2-(3-cyanophenyl)acetamido]-2-oxo-1,2-dihydropyridin-1-yl}-2-fluorobutyl)-N-{[3-(trifluoromethoxy)phenyl]methyl}-1H-1,2,3-triazole-4-carboxamide] has an IC50 [1] of under 100 nM and an EC50 (A549 cells) of 500 to 5000 nM.
`CCOC(=O)N1CCC(CC(=O)Nc2ccn(CCC(F)Cn3cc(C(=O)NCc4cccc(OC(F)(F)F)c4)nn3)c(=O)c2)CC1` (stereo not drawn) [Example 281, ethyl 4-{[(1-{3-fluoro-4-[4-({[3-(trifluoromethoxy)phenyl]methyl}carbamoyl)-1H-1,2,3-triazol-1-yl]butyl}-2-oxo-1,2-dihydropyridin-4-yl)carbamoyl]methyl}piperidine-1-carboxylate] was tested, and the IC50 [1] was under 100 nM and the EC50 (A549 cells) was under 100 nM.
`CS(=O)(=O)N1CCC(CC(=O)Nc2ccn(CCC(F)Cn3cc(C(=O)NCc4cccc(OC(F)(F)F)c4)nn3)c(=O)c2F)CC1` (stereo not drawn) [Example 302, 1-(2-fluoro-4-{3-fluoro-4-[2-(1-methanesulfonylpiperidin-4-yl)acetamido]-2-oxo-1,2-dihydropyridin-1-yl}butyl)-N-{[3-(trifluoromethoxy)phenyl]methyl}-1H-1,2,3-triazole-4-carboxamide] showed an IC50 [1] of under 100 nM and an EC50 (A549 cells) of 100 to 500 nM.
